Measurements taken from US9695154B2, “Heteroaryl inhibitors of sumo activating enzyme” (MILLENNIUM PHARMACEUTICALS, INC., priority 2013, dated 2017).

Molecular target: T1, recombinant human SAE enzyme (Homo sapiens, UniProt Q9UBT2)
T1 sequence (Q9UBT2 1-640): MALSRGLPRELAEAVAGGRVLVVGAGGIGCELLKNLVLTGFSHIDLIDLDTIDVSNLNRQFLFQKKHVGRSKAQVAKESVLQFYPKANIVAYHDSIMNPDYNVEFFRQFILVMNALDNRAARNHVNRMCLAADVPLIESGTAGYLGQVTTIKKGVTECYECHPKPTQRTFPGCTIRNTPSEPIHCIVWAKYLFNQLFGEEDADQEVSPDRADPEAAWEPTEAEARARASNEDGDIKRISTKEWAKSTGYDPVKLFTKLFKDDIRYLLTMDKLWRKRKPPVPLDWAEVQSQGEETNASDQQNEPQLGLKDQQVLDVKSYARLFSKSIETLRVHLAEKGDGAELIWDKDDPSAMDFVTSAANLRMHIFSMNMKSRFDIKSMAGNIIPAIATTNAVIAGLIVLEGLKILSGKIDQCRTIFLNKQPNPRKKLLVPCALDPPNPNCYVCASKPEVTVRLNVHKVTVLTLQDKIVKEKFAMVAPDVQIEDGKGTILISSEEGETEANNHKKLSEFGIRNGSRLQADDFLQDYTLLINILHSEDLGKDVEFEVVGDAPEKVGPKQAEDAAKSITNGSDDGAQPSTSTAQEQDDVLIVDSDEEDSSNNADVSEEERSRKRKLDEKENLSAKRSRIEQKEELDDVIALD
T1 sequence (Q9UBE0 1-346 partner): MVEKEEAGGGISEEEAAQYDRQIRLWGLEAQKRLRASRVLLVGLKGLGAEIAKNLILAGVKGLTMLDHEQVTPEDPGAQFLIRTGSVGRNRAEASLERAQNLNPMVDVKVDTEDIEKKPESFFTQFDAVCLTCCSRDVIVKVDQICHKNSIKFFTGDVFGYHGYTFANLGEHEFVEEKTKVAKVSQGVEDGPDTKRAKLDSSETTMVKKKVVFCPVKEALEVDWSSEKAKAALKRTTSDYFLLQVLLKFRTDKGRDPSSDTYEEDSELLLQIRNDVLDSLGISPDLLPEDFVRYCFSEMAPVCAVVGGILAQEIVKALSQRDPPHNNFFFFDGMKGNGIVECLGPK
Assay: SAE HTRF Enzyme Assay
Format: biochemical
Conditions: for IC50: class symbols A-C; for inhibition at 0.111 µM: compound concentration 0.111 μM, read-out: Percent Inhibition
Method in brief: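 SAE 0.11 nM; ATP 0.5 μM; Sumo-Flag 0.125 μM; Ubc9-GST 0.01 μM; 250 μM GSH, 5 mM MgCl2, pH 7.5. 105 min, 24° C. EDTA/KF stop plus Eu/APC antibodies, 2 h, TR-FRET. % inhibition or IC50.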

Compound | IC50 [nM] | inhibition at 0.111 µM [%]
NS(=O)(=O)OC[C@H]1C[C@@H](Nc2ncncc2C(=O)c2ccn(Cc3ccc(Cl)s3)c2)[C@@H](F)[C@@H]1O [Compound I-189, [(1R,2R,3R,4R)-4-{[5-({1-[(5-chloro-2-thienyl)methyl]-1H-pyrrol-3-yl}carbonyl)pyrimidin-4-yl]amino}-3-fluoro-2-hydroxycyclopentyl]methyl sulfamate] | < 10 | 100
NS(=O)(=O)OC[C@H]1C[C@@H](Nc2ncncc2C(=O)c2ccn(Cc3ccc(F)c(F)c3)n2)[C@@H](O)[C@@H]1O [Compound I-190, {(1R,2R,3R,4R)-4-[(5-{[1-(3,4-difluorobenzyl)-1H-pyrazol-3-yl]carbonyl}pyrimidin-4-yl)amino]-2,3-dihydroxycyclopentyl}methyl sulfamate] | < 10 | 98
NS(=O)(=O)OC[C@H]1C[C@@H](Nc2ncncc2C(=O)c2ccn(Cc3ccc(Cl)cc3F)n2)C[C@@H]1O [Compound I-191, {(1R,2S,4R)-4-[(5-{[1-(4-chloro-2-fluorobenzyl)-1H-pyrazol-3-yl]carbonyl}pyrimidin-4-yl)amino]-2-hydroxycyclopentyl}methyl sulfamate] | < 10 | 92
NS(=O)(=O)OC[C@H]1C[C@@H](Nc2ncncc2C(=O)c2ccn(Cc3ccccc3Cl)n2)[C@H](O)[C@@H]1O [Compound I-193, ((1R,2R,3S,4R)-4-((5-(1-(2-Chlorobenzyl)-1H-pyrazole-3-carbonyl)pyrimidin-4-yl)amino)-2,3-dihydroxycyclopentyl)methyl sulfamate] | < 10 | 99
NS(=O)(=O)OC[C@H]1C[C@@H](Nc2ncncc2C(=O)c2ccn(Cc3ccc(F)cc3Cl)n2)[C@H](O)[C@@H]1O [Compound I-194, {(1R,2R,3S,4R)-4-[(5-{[1-(2-chloro-4-fluorobenzyl)-1H-pyrazol-3-yl]carbonyl}pyrimidin-4-yl)amino]-2,3-dihydroxycyclopentyl}methyl sulfamate] | < 10 | 100
CC#CCn1ccc(C(=O)c2cncnc2N[C@@H]2C[C@H](COS(N)(=O)=O)[C@@H](O)[C@@H]2F)c1 [Compound I-195, {(1R,2R,3R,4R)-4-[(5-{[1-(but-2-yn-1-yl)-1H-pyrrol-3-yl]carbonyl}pyrimidin-4-yl)amino]-3-fluoro-2-hydroxycyclopentyl}methyl sulfamate] | 10 to 100 | 90
NS(=O)(=O)OC[C@H]1C[C@@H](Nc2ncncc2C(=O)c2ccn(C#Cc3ccccc3)c2)C[C@@H]1O [Compound I-196, {(1R,2S,4R)-2-Hydroxy-4-[(5-{[1-(phenylethynyl)-1H-pyrrol-3-yl]carbonyl}pyrimidin-4-yl)amino]cyclopentyl}methyl sulfamate] | 100 to 1000 | 33
Cc1cc(C(=O)c2cncnc2N[C@@H]2C[C@H](COS(N)(=O)=O)[C@@H](O)[C@@H]2F)nn1Cc1ccc(C(F)(F)F)o1 [Compound I-197, [(1R,2R,3R,4R)-3-Fluoro-2-hydroxy-4-({5-[(5-methyl-1-{[5-(trifluoromethyl)-2-furyl]methyl}-1H-pyrazol-3-yl)carbonyl]pyrimidin-4-yl}amino)cyclopentyl]methyl sulfamate] | < 10 | 99
Cc1ccc(Cn2ccc(C(=O)c3cncnc3N[C@@H]3C[C@H](COS(N)(=O)=O)[C@@H](O)[C@H]3O)n2)cc1F [Compound I-198, {(1R,2R,3S,4R)-4-[(5-{[1-(3-fluoro-4-methylbenzyl)-1H-pyrazol-3-yl]carbonyl}pyrimidin-4-yl)amino]-2,3-dihydroxycyclopentyl}methyl sulfamate] | < 10 | > 99
NS(=O)(=O)OC[C@H]1C[C@@H](Nc2ncncc2C(=O)c2ccn(CC#Cc3ccco3)n2)C[C@@H]1O [Compound I-199, [(1R,2S,4R)-4-{[5-({1-[3-(2-furyl)prop-2-yn-1-yl]-1H-pyrazol-3-yl}carbonyl)pyrimidin-4-yl]amino}-2-hydroxycyclopentyl]methyl sulfamate] | < 10 | 94
NS(=O)(=O)OC[C@H]1C[C@@H](Nc2ncncc2C(=O)c2ccn(/C=C\c3ccccc3)c2)C[C@@H]1O [Compound I-200, [(1R,2S,4R)-2-Hydroxy-4-{[5-({1-[(Z)-2-phenylvinyl]-1H-pyrrol-3-yl}carbonyl)pyrimidin-4-yl]amino}cyclopentyl]methyl sulfamate] | < 10 | 98
NS(=O)(=O)OC[C@H]1C[C@@H](Nc2ccncc2C(=O)c2ccn(Cc3cccc(Cl)c3)c2)C[C@@H]1O [Compound I-201, {(1R,2S,4R)-4-[(3-{[1-(3-chlorobenzyl)-1H-pyrrol-3-yl]carbonyl}pyridin-4-yl)amino]-2-hydroxycyclopentyl}methyl sulfamate] | < 10 | 98
NS(=O)(=O)OC[C@H]1C[C@@H](Nc2ncncc2C(=O)c2ccn(Cc3c(F)c(F)c(F)c(F)c3F)n2)C[C@@H]1O [Compound I-202, {(1R,2S,4R)-2-hydroxy-4-[(5-{[1-(pentafluorobenzyl)-1H-pyrazol-3-yl]carbonyl}pyrimidin-4-yl)amino]cyclopentyl}methyl sulfamate] | 10 to 100 | 83
NS(=O)(=O)OC[C@H]1C[C@@H](Nc2ncncc2C(=O)c2ccn(Cc3ccccc3)n2)C(F)(F)[C@@H]1O [Compound I-203, [(1R,2R,4R)-4-({5-[(1-benzyl-1H-pyrazol-3-yl)carbonyl]pyrimidin-4-yl}amino)-3,3-difluoro-2-hydroxycyclopentyl]methyl sulfamate] | < 10 | 94
NS(=O)(=O)OC[C@H]1C[C@@H](Nc2ncncc2C(=O)c2ccn(Cc3ccc(Cl)c(Br)c3)n2)[C@H](O)[C@@H]1O [Compound I-204, {(1R,2R,3S,4R)-4-[(5-{[1-(3-bromo-4-chlorobenzyl)-1H-pyrazol-3-yl]carbonyl}pyrimidin-4-yl)amino]-2,3-dihydroxycyclopentyl}methyl sulfamate] | < 10 | 99
NS(=O)(=O)OC[C@H]1C[C@@H](Nc2ncncc2C(=O)c2ccn(-c3ccccc3)n2)C[C@@H]1O [Compound I-205, [(1R,2S,4R)-2-Hydroxy-4-({5-[(1-phenyl-1H-pyrazol-3-yl)carbonyl]pyrimidin-4-yl}amino)cyclopentyl]methyl sulfamate] | 10 to 100 | 60
NS(=O)(=O)OC[C@H]1C[C@@H](Nc2ncncc2C(=O)c2ccn(Cc3ccccc3Cl)n2)C[C@@H]1O [Compound I-206, {(1R,2S,4R)-4-[(5-{[1-(2-chlorobenzyl)-1H-pyrazol-3-yl]carbonyl}pyrimidin-4-yl)amino]-2-hydroxycyclopentyl}methyl sulfamate] | < 10 | 96
NS(=O)(=O)OC[C@H]1C[C@@H](Nc2ncncc2C(=O)c2ccn(Cc3cc(Br)ccc3Cl)n2)[C@@H](F)[C@@H]1O [Compound I-207, {(1R,2R,3R,4R)-4-[(5-{[1-(5-bromo-2-chlorobenzyl)-1H-pyrazol-3-yl]carbonyl}pyrimidin-4-yl)amino]-3-fluoro-2-hydroxycyclopentyl}methyl sulfamate] | < 10 | 99
Cc1cc(Cn2ccc(C(=O)c3cncnc3N[C@@H]3C[C@H](COS(N)(=O)=O)[C@@H](O)[C@@H]3F)c2)on1 [Compound I-208, [(1R,2R,3R,4R)-3-fluoro-2-hydroxy-4-{[5-({1-[(3-methylisoxazol-5-yl)methyl]-1H-pyrrol-3-yl}carbonyl)pyrimidin-4-yl]amino)cyolopentyl]methyl sulfomate] | < 10 | 95
NS(=O)(=O)OC[C@H]1C[C@@H](Nc2ncncc2C(=O)c2ccn(Cc3ccc(C(F)(F)F)o3)c2)[C@@H](F)[C@@H]1O [Compound I-209, [(1R,2R,3R,4R)-3-fluoro-2-hydroxy-4-({5-[(1-{[5-(trifluoromethyl)-2-furyl]methyl}-1H-pyrrol-3-yl)carbonyl]pyrimidin-4-yl}amino)cyclopentyl]methyl sulfamate] | < 10 | 99
Cc1ccc(Cn2ccc(C(=O)c3cncnc3N[C@@H]3C[C@H](COS(N)(=O)=O)[C@@H](O)C3)n2)cc1F [Compound I-210, {(1R,2S,4R)-4-[(5-{[1-(3-Fluoro-4-methylbenzyl)-1H-pyrazol-3-yl]carbonyl}pyrimidin-4-yl)amino]-2-hydroxycyclopentyl}methyl sulfamate] | < 10 | 98
